How the values were obtained:
[1] = tested on: p38 MAPK phosphorylation; experiment: p38 MAPK phosphorylation (Western blot) in anisomycin-treated rat aorta; assay type: cell-based; settings: anisomycin 200 μM, 1 h
Description: (§1) RA rings were suspended in a muscle bath and incubated with either buffer alone (Ctrl), Aniso (200 μM) for 1 h, or NiPp (500 μM) for 30 min followed by Aniso (200 μM) for 1 h. […] Proteins were extracted […] immunoblotted to examine p38MAPK phosphorylation. Quantification of relative phosphorylation to total p38MAPK level is shown. n=10, *p<0.05 in one-way ANOVA with Tukey post-test. NiPp restores endothelial dysfunction and reduced p38 MAPK phosphorylation induced by anisomycin in RA.
(§2) RA rings were suspended in a muscle bath and incubated with either buffer alone (Ctrl), Aniso (200 μM) for 1 h, or NiPp (500 μM) for 30 min followed by Aniso (200 μM) for 1 h. […] The force generated was determined and was adjusted to the weight and length of the tissue. […] Proteins were extracted and phosphorylation of p38 MAPK was determined by Western blot analysis. […] Data are expressed as mean±SD.
p38 MAPK activation with Anisomycin. […] After treatments, endothelial-dependent relaxation was determined or tissues were snap-frozen for Western blot analysis.
Western blot Analysis. […] The protein-antibody complexes were visualized and quantified using the Odyssey Infrared Imaging System. Phosphorylation was calculated as a ratio of the phosphorylated protein to total protein and was then normalized to the untreated tissues (Ctrl) with the control value set as 1.0.

[2] = tested on: rat aorta; experiment: Carbachol-induced relaxation of anisomycin-treated rat aorta; assay type: cell-based; settings: rat aorta; anisomycin 200 μM, 1 h
Description: as §1
as §2, with “tissue. Representative tracings from 1 out of 6 different rats are shown.” for “tissue.”, “mean±SD. […]” for “mean±SD.”
This produced the maximal force tension relationship as previously described. […] Contractile responses were defined by stress, calculated using force generated by tissues as follows: stress (×10^5 N/m^2)=force (g)×0.0987/area, where area=wet weight (mg)/at maximal length (mm)]/1.055.
Relaxation was calculated as percent change in stress compared to the maximal PE-induced contraction (set as 100%). […]

With `COc1ccc(C[C@H]2NC[C@H](O)[C@H]2OC(C)=O)cc1` [Anisomycin, anisomycin, reference compound] the “effect of anisomycin alone on phosphorylation of p38 MAPK” value [1] was “increases” and the “effect of anisomycin alone on endothelial dependent relaxation” value [2] was “impaired”.

Source: patent US12583895B2, “Polypeptides for restoring endothelial function and methods of use thereof” (Vanderbilt University, priority 2019, dated 2026)
